From patent US8003331B2, “Method for identifying target protein of drug and method for screening therapeutic agent for diabetes using the target protein” (Astellas Pharma Inc., priority 2005, dated 2011)
Entries after “also recorded” stand apart in the source; their conditions may differ.

Key:
[1] = target: T1, Asp 295 Val mutation type ATP5B (Homo sapiens, UniProt P06576, D295V); assay: GST-DHFR / MTX-phenformin pull-down, Asp 295 Val mutation type ATP5B; format: binding; conditions: pull-down assay as Example 5(4)
T1 construct: a complete length cDNA coding for an Asp 295 Val mutation type ATP5B was obtained; made in house

[2] = target: T2, Glu 175 Val mutation type ATP5B (Homo sapiens, UniProt P06576, E175V); assay: GST-DHFR / MTX-phenformin pull-down, Glu 175 Val mutation type ATP5B; format: binding; conditions: pull-down assay as Example 5(4)
T2 construct: a complete length cDNA of about 1600 base pairs coding for a Glu 175 Val mutation type ATP5B; made in house
Source text: Using the aforementioned expression plasmid pcDNA-ATP5B as the template and using respective sets of primers of the nucleotide sequences represented by SEQ ID NO:87 and SEQ ID NO:81, and SEQ ID NO:80 and SEQ ID NO:88, two DNA fragments of about 530 base pairs of 5′-side and about 1080 base pairs of 3′-side of cDNA having a mutation in which the 175th position of amino acid, Glu, of human ATP5B was replaced by Val were amplified by PCR. All of the PCR reaction, cloning stem and determination of nucleotide sequence were the same as the methods shown in Example 5(1). Using an equivalent mixture of the thus obtained two PCR products as the template, PCR was carried out using the primers represented by SEQ ID NO:80 and SEQ ID NO:81 this time, thereby obtaining a complete length cDNA of about 1600 base pairs coding for a Glu 175 Val mutation type ATP5B. The thus obtained cDNA fragment was cloned into an expression vector (pcDNA3.1/V5-His-TOPO; Invitrogen), and then the nucleotide sequence inserted into the vector was identified using the synthetic primer represented by SEQ ID NO:90 to confirm that the Glu 175 Val mutation was formed in ATP5B. The thus obtained expression plasmid is referred to as pcDNA-ATP5B(E175V) hereinafter. […]

[3] = target: T3, human ATP5B (Homo sapiens, UniProt P06576); assay: competitive inhibition of binding of ATP5B and MTX-phenformin; conditions: MTX-phenformin 10 μM; free phenformin 10 μM; compounds A and B 'addition of 10'
T3 construct: an attempt was made to amplify complete length cDNA of human ATP5B; made in house; host or cells: cell-free: TNT Quick Coupled Transcription/Translation System (Promega) from pcDNA-ATP5B; GST-DHFR from E. coli BL21

[4] = test system: AMPK; assay: AMPK activation ability detection in HeLa S3 cell (anti-phospho AMPK western blotting); format: cell-based, human; conditions: phenformin 1 mM, 1 hr
Method: This expression plasmid pcDNA-LKB1 and the pcDNA-ATP5B prepared in the aforementioned Example 5(1) or an empty vector (pcDNA3.1) (Invitrogen) were transferred into HeLa S3 cell. The HeLa S3 cell (ATCC) was cultured in a 6 well culture plate (35 mm in well diameter) until it reached a state of 70% confluent, by adding 2 ml of a minimum essential medium DMEM (Gibco) containing 10% fetal bovine serum (Sigma) to each well of the culture plate. The medium was substituted by 1 ml per well of a serum-free medium OPTI MEM I (Invitrogen), and 3.0 μg/well of each of the empty vector (pcDNA3.1), pcDNA-LKB1 and pcDNA-ATP5B was transiently transferred using Lipofect amine 2000 (Invitrogen). After 12 hours of the culturing, this was substituted by 2 ml/well of DMEM containing 10% of fetal bovine serum from which low molecular substances had been removed by a charcoal treatment, and further cultured for 36 hours. This was further cultured for 1 hour (1 hr) under a condition of adding phenformin (Sigma) to a final concentration of 1 mM or the solvent (DMSO) alone. The medium was discarded, the cells were washed with a phosphate buffer (to be referred to as PBS hereinafter, and then the cells were lysed by adding 0.15 ml of the aforementioned buffer A (however, the NaCl concentration was 150 mM, and various phosphatase inhibitors; 2 mM Na3VO4, 10 mM NaF, 25 mM β-glycerophosphate, 0.2 mM Na2MoO4, 20 nM okadaic acid, were added). The activity of AMPK in the cells was detected at the level of phosphorylation of molecules by a conventionally known SDS electrophoresis and a western blotting which uses an anti-phosphorylation AMPK antibody (Phospho-AMPK-α(Thr172) Antibody, Daiichi Pure Chemicals). In this case, in order to confirm that there is no difference in the amount of protein of AMPKα (an AMPK subunit which undergoes phosphorylation) among samples, a western blotting which uses an anti-AMPKα antibody (Daiichi Pure Chemicals) was simultaneously carried out. […] However, in the cell in which human ATP5B was expressed by transferring pcDNA-ATP5B, activation of AMPK by phenformin treatment was not found.

[5] = target: T4, ATP5B (Rattus norvegicus, UniProt P10719); assay: GST-HSPA4 pull-down from L 6 cell extract, silver staining and mass spectrum identification; format: binding; conditions: phenformin 50 nM added vs no addition
T4 construct: a rat skeletal muscle-derived cell, L 6 cell (ATCC); endogenous in cells; host or cells: L6 (rat skeletal muscle)
Source text: Using the aforementioned method shown in Example 2(2), attempt was made to screen the target protein of biguanide whose direct target protein has been unclear in spite of its significant drug effect as an agent for treating diabetes. Firstly, a rat skeletal muscle-derived cell, L 6 cell (ATCC), was suspended in a minimum essential medium (αMEM, Invitrogen) containing 10% fetal calf serum (FCS) and cultured on a collagen-coated plate of 15 cm in diameter (Asahi Techno Glass) until reaching the confluent state. The resulting cells were washed twice with 15 ml of ice-cooled phosphate buffer (PBS) and then lysed by adding 2.0 ml of the aforementioned buffer A, and the cell extract was collected using a scraper. […] After 1 hour of shaking at 4° C., the protein binding to the GST-HSPA4 on beads was co-precipitated by centrifugation. In this connection, in order to prevent drop out of the molecular chaperone protein from the beads, the molecular chaperone protein and beads were used by chemically crosslinking them in advance by a conventionally known method. […] As a result, a large protein band of about 60 kDa, in which its amount to bind to the molecular chaperone protein is reduced at the time of adding phenformin in comparison with the case of no addition, was detected. […]

[6] = target: T3, human ATP5B; assay: GST-DHFR / MTX-phenformin GST pull-down of 35S-labeled ATP5B; format: binding; conditions: 10 μM MTX-phenformin fixed to GST-DHFR; wild type ATP5B
Method: Promega) and 0.74 MBq of a radioisotope (redivue Pro-mix L-[35S]; Amersham) and in accordance with the protocols attached thereto. A 15 μl portion of this human ATP5B protein preparation liquid and 1 μg for each of the GST protein or GST-DHFR, purified on the glutathione Sepharose beads, were mixed and shaken at 4° C. for 1 hour after adding 0.3 ml of buffer A thereto. Thereafter, the protein binding to the GST protein or GST-DHFR on beads was co-precipitated by centrifugation. After repeating this operation 4 times, proteins in the precipitate were separated by SDS polyacrylamide gel electrophoresis in accordance with a conventionally known method, and the protein bound to the probe was detected by an autoradiography.

`[H]/N=C(/N)N/C(=N/[H])NCCc1ccccc1` [phenformin] was tested, and the “binding with Asp 295 Val mutation type ATP5B” value [1] was “not able to confirm the binding; also recorded: disappearance”, the “binding with Glu 175 Val mutation type ATP5B” value [2] was “not able to confirm the binding; also recorded: disappearance” and the “influence on binding of ATP5B and MTX-phenformin” value [3] was “obstructed”. The “phosphorylation level (activation) of AMPK” value ([4]; HeLa S3 cell without ATP5B over-expression (empty vector- or pcDNA-LKB1-transferred), concentration of compounds A and B not given) was “significantly accelerated and activated”, the “activation of AMPK in cell over-expressing human ATP5B” value ([4]; pcDNA-ATP5B-transferred HeLa S3 cell, metformin 10 mM) was “not found; also recorded: disappearance” and the “amount of about 60 kDa protein band (ATP5B) binding to the molecular chaperone protein” value [5] was “reduced”. For the same molecule, the “binding with human ATP5B (band of about 60 kDa, autoradiography)” value [6] was “directly binds; also recorded: able to confirm binding”.
